Read-outs that look alike come from different tables or passages of the source.

EC50 and IC50 data for one molecule are collected here from patent US10815235B2, “Polycyclic compounds and uses thereof” (priority 2017, dated 2020).

The target in experiment [1] is Serotonin 5-HT1D receptor (Homo sapiens, UniProt P28221). Briefly: GTPγS Scintillation Proximity Assay, agonist and antagonist mode. Type of experiment: biochemical. The procedure: Antagonist and agonist activities were determined using a GTPγS Scintillation Proximity Assay. The assay was prepared as follows: Membrane extracts were prepared from recombinant human Dopamine D2L, D3; Serotonin 5-HT1A, 5-HT1B, 5-HT1D and 5-HT1F receptors.
Serotonin 5-HT1D receptor, sequence (P28221 whole entry): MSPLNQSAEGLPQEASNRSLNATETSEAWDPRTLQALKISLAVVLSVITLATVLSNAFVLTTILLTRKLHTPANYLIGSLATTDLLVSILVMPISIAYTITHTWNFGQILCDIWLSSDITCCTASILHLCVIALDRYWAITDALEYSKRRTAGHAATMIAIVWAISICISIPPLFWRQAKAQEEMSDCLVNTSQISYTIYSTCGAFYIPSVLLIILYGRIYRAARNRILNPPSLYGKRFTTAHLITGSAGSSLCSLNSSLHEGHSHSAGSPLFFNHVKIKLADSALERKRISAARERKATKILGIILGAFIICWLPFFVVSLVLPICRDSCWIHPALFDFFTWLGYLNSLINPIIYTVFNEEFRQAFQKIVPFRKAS
Samples were tested by proprietary biological assays by Ogeda S. A., Euroscreen FAST Business Unit, Rue Adrienne Bolland, 47 B-6041 Gosselies, Belgium. Each protein assay was prepared using the following conditions.
5-HT1D • Assay buffer: 20 mM HEPES pH 7.4; 200 mM NaCl, 10 μg/ml saponin, 3 mM MgCl2; • Membranes: recombinant 5-HT1D membrane extracts thawed on ice and diluted in assay buffer to give […] and kept on ice; • GDP: diluted in assay buffer to give a 30 μM working solution (3 μM final concentration); • Beads: PVT-WGA (Perkin Elmer, RPNQ001), diluted in assay buffer at 50 mg/ml (0.5 mg/10 μl); and • GTPγ^35S: (PerkinElmer NEG030X), diluted in assay buffer to give 0.1 nM.
Membranes were mixed with GDP (volume:volume 1:1) and incubated for at least 15 min on ice. In parallel, GTPγ[^35S] is mixed with the beads (volume:volume 1:1) just before starting the reaction.
To determine agonist activity, the following reagents were added in the wells of an Optiplate (Perkin Elmer): 50 μL of test or reference ligand, 10 μL of assay buffer, 20 μl of the membranes:GDP mix, and 20 μL of the GTPγ[^35S]:beads mix. EC50 values were used to determine whether a compound acted as an agonist.
To determine antagonist activity, the following reagents were added in the wells of an Optiplate (Perkin Elmer): 50 μL of test or reference ligand, 20 μL of the membranes:GDP mix, then the plate is incubated 15 minutes at room temperature. After incubation, 10 μL of reference agonist at historical EC80 (final concentration) was added, followed by 20 μL of the GTPγ[^35S]:beads mix.
The plates were covered with a top seal, mixed on an orbital shaker for 2 min, and then incubated for 1 hour at room temperature. Then the plates were centrifuged for 10 min at 2000 rpm, incubated at room temperature 1 hour and counted for 1 min/well with a PerkinElmer TopCount reader. IC50 values were used to determine whether a compound acted as an antagonist.

Experiment [2] deals with T1, Serotonin 5-HT2B receptor (Homo sapiens, UniProt P41595).
T1 construct: expressed in transfected cells; host or cells: CHO-K1
T1 sequence (P41595 whole entry): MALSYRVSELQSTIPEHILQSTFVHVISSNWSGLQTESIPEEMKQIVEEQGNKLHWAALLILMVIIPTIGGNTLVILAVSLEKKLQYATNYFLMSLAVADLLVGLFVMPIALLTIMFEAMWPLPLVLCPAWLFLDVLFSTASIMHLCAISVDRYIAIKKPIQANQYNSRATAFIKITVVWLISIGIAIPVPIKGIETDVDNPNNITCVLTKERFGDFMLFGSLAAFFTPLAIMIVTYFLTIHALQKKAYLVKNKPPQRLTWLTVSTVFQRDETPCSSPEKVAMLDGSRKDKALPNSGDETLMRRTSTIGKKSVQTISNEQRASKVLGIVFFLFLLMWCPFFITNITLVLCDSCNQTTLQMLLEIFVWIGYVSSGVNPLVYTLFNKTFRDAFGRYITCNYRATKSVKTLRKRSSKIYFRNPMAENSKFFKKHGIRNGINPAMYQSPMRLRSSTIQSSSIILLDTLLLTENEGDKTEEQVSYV
Briefly: IPOne HTRF assay, agonist and antagonist mode. Type of experiment: cell-based. As for the experimental part: Antagonist and agonist activities were determined using an IPOne […] HTRF assay. The assay was prepared as follows: CHO-K1 cells expressing human recombinant Adrenergic α1A, Serotonin 5-HT2A, and 5-HT2B receptors grown to mid-log phase in culture media without antibiotics were detached with PBS-EDTA, centrifuged and resuspended in medium without antibiotics buffer. 20,000 cells were distributed in a 96 well plate and incubated overnight at 37° C. with 5% CO2.
To analyze agonist activity, the medium was removed and 20 μl of assay buffer plus 20 μl of test compound or reference agonist were added in each well. The plate was incubated for 60 min. at 37° C. with 5% CO2. EC50 values were used to determine whether a compound acted as an agonist.
To analyze antagonist activity, 20 μl of test compound or reference antagonist was added and the plate is incubated for 15 min. at 37° C. in a humidified atmosphere of 95% air with 5% CO2, then 20 μl of reference agonist at a final concentration corresponding to the historical EC80 is added. The plate is incubated for 60 min. at 37° C. with 5% CO2. IP1-D2 reagent and anti-IP1 cryptate reagents are then dispensed in the wells and IP1 concentrations are then measured following the manufacturer recommendations. IC50 values were used to determine whether a compound acted as an antagonist.
On the technique in general: Time-resolved FRET reads energy transfer from a long-lived donor to a nearby acceptor.

Consider `CC[C@@H](CO)NC(=O)[C@@H]1C=C2c3cccc4c3c(c(C3CC3)n4C)C[C@H]2N(C)C1` [Compound D13, (6aR,9R)-5-cyclopropyl-N—((S)-1-hydroxybutan-2-yl)-4,7-dimethyl-4,6,6a,7,8,9-hexahydroindolo[4,3-fg]quinoline-9-carboxamide], for which the EC50 (in general, the midpoint of the concentration-response curve) in experiment [1] (Agonist Activity (EC50), 5-HT1D, membrane extracts) is 730 nM; in experiment [1] (EC50 value for the Serotonin 5-HT1D receptor, agonist mode, bound stated), below 1000 nM. The IC50 (in general, the concentration at which inhibition is half-maximal) was 140 nM in experiment [2] (CHO-K1 cells, vs reference agonist at EC80, read-out: Antagonist Activity (IC50), 5-HT2B) and below 1000 nM in experiment [2] (antagonist mode, bound stated, read-out: IC50 value for the Serotonin 5-HT2B receptor).
